Laboratory results taken from ChEMBL document CHEMBL6096630, “Enhancing therapeutic efficacy in homologous recombination-proficient pancreatic cancer via the combination of PARP1-PROTAC and a BRD4 inhibitor” (Bioorg Med Chem, 2024).
The source made the active and inactive calls. No cut-off for these calls is given here.

What was measured:
[1] = Toxicity in BALB/c mouse xenografted with human PANC-1 cells assessed as pathological changes in lung at 40 mg/kg, ip for 4 weeks administered for 5 days consecutively and 2 days without treatment on every week in presence of JQ1 by H and E staining based analysis; assay type: organism-based; conditions: in vivo, 672 h
[2] = Toxicity in BALB/c mouse xenografted with human PANC-1 cells assessed as pathological changes in spleen at 40 mg/kg, ip for 4 weeks administered for 5 days consecutively and 2 days without treatment on every week in presence of JQ1 by H and E staining based analysis; assay type: organism-based; conditions: in vivo, 672 h
PANC-1 [3] = experiment: Antitumor activity against human PANC-1 cells xenografted in BALB/c mouse assessed as reduction in tumor growth at 40 mg/kg, ip for 4 weeks administered for 5 days consecutively and 2 days without treatment on every week; assay type: functional, organism-based
[4] = Toxicity in BALB/c mouse xenografted with human PANC-1 cells assessed as drug tolerance at 40 mg/kg, ip for 4 weeks administered for 5 days consecutively and 2 days without treatment on every week in presence of JQ1; assay type: organism-based; conditions: in vivo, 672 h
PANC-1 [5] = experiment: Induction of cell cycle arrest in human PANC-1 cells assessed as accumulation at S phase at 2.5 uM incubated for 24 hrs by PI staining based flow cytometry (reference value: 38.94 %); assay type: functional
[6] = Toxicity in BALB/c mouse xenografted with human PANC-1 cells assessed as animal morbidity at 40 mg/kg, ip for 4 weeks administered for 5 days consecutively and 2 days without treatment on every week in presence of JQ1; assay type: organism-based; conditions: in vivo, 672 h
PANC-1 [7] = experiment: Induction of cell cycle arrest in human PANC-1 cells assessed as accumulation at S phase at 1.2 uM incubated for 24 hrs by PI staining based flow cytometry (reference value: 38.94 %); assay type: functional
PANC-1 [8] = experiment: Induction of apoptosis in human PANC-1 cells assessed as necrotic cells at 0.6 uM incubated for 48 hrs by Annexin V-FITC/PI staining based flow cytometry (reference value: 3.09 %); assay type: functional
PANC-1 [9] = experiment: Induction of cell cycle arrest in human PANC-1 cells assessed as accumulation at G2 phase at 1.2 uM incubated for 24 hrs by PI staining based flow cytometry (reference value: 9.36 %); assay type: functional
PANC-1 [10] = experiment: Induction of apoptosis in human PANC-1 cells assessed as late apoptotic cells at 2.5 uM incubated for 48 hrs by Annexin V-FITC/PI staining based flow cytometry (reference value: 3.87 %); assay type: functional
PANC-1 [11] = experiment: Induction of cell cycle arrest in human PANC-1 cells assessed as accumulation at S phase at 5 uM incubated for 24 hrs by PI staining based flow cytometry (reference value: 38.94 %); assay type: functional
[12] = Toxicity in BALB/c mouse xenografted with human PANC-1 cells assessed as pathological changes in kidney at 40 mg/kg, ip for 4 weeks administered for 5 days consecutively and 2 days without treatment on every week by H and E staining based analysis; assay type: organism-based; conditions: in vivo, 672 h
PANC-1 [13] = experiment: Induction of apoptosis in human PANC-1 cells assessed as late apoptotic cells at 2 uM incubated for 48 hrs in presence of JQ1 by Annexin V-FITC/PI staining based flow cytometry (reference value: 3.87 %); assay type: functional
PANC-1 [14] = experiment: Induction of cell cycle arrest in human PANC-1 cells assessed as accumulation at G2 phase at 2.5 uM incubated for 24 hrs by PI staining based flow cytometry (reference value: 9.36 %); assay type: functional
[15] = Toxicity in BALB/c mouse xenografted with human PANC-1 cells assessed as drug tolerance at 40 mg/kg, ip for 4 weeks administered for 5 days consecutively and 2 days without treatment on every week; assay type: organism-based; conditions: in vivo, 672 h
PANC-1 [16] = experiment: Induction of apoptosis in human PANC-1 cells assessed as necrotic cells at 1.2 uM incubated for 48 hrs by Annexin V-FITC/PI staining based flow cytometry (reference value: 3.09 %); assay type: functional
PANC-1 [17] = experiment: Induction of DNA damage in human PANC-1 cells assessed as decrease in BRCA1 level at 2 uM in presence of JQ1 by Western blot analysis; assay type: functional, cell-based
PANC-1 [18] = experiment: Induction of apoptosis in human PANC-1 cells assessed as necrotic cells at 2.5 uM incubated for 48 hrs by Annexin V-FITC/PI staining based flow cytometry (reference value: 3.09 %); assay type: functional
PANC-1 [19] = experiment: Induction of cell cycle arrest in human PANC-1 cells assessed as accumulation at G1 phase at 2.5 uM incubated for 24 hrs by PI staining based flow cytometry (reference value: 51.70 %); assay type: functional
PANC-1 [20] = experiment: Induction of cell cycle arrest in human PANC-1 cells assessed as accumulation at G2 phase at 2 uM incubated for 24 hrs in presence of JQ1 by PI staining based flow cytometry (reference value: 9.36 %); assay type: functional
PANC-1 [21] = experiment: Induction of apoptosis in human PANC-1 cells assessed as early apoptotic cells at 5 uM incubated for 48 hrs by Annexin V-FITC/PI staining based flow cytometry (reference value: 1.41 %); assay type: functional
PANC-1 [22] = experiment: Induction of apoptosis in human PANC-1 cells assessed as late apoptotic cells at 0.6 uM incubated for 48 hrs by Annexin V-FITC/PI staining based flow cytometry (reference value: 3.87 %); assay type: functional
PANC-1 [23] = experiment: Induction of DNA damage in human PANC-1 cells assessed as decrease in RAD51 level at 2 uM in presence of JQ1 by Western blot analysis; assay type: functional, cell-based
PANC-1 [24] = experiment: Induction of cell cycle arrest in human PANC-1 cells assessed as accumulation at G1 phase at 10 uM incubated for 24 hrs by PI staining based flow cytometry (reference value: 51.70 %); assay type: functional
PANC-1 [25] = experiment: Induction of DNA damage in human PANC-1 cells assessed as increase in gamma-H2AX level at 2 uM in presence of JQ1 by Western blot analysis; assay type: functional, cell-based
PANC-1 [26] = experiment: Induction of apoptosis in human PANC-1 cells assessed as viable cells at 5 uM incubated for 48 hrs by Annexin V-FITC/PI staining based flow cytometry (reference value: 91.64 %); assay type: functional; conditions: read-out: Activity
PANC-1 [27] = experiment: Induction of apoptosis in human PANC-1 cells assessed as viable cells at 10 uM incubated for 48 hrs by Annexin V-FITC/PI staining based flow cytometry (reference value: 91.64 %); assay type: functional; conditions: read-out: Activity
[28] = Toxicity in BALB/c mouse xenografted with human PANC-1 cells assessed as body weight loss at 40 mg/kg, ip for 4 weeks administered for 5 days consecutively and 2 days without treatment on every week in presence of JQ1; assay type: organism-based; conditions: in vivo, 672 h
[29] = Toxicity in BALB/c mouse xenografted with human PANC-1 cells assessed as pathological changes in liver at 40 mg/kg, ip for 4 weeks administered for 5 days consecutively and 2 days without treatment on every week by H and E staining based analysis; assay type: organism-based; conditions: in vivo, 672 h
PANC-1 [30] = experiment: Induction of apoptosis in human PANC-1 cells assessed as late apoptotic cells at 1.2 uM incubated for 48 hrs by Annexin V-FITC/PI staining based flow cytometry (reference value: 3.87 %); assay type: functional
PANC-1 [31] = experiment: Induction of cell cycle arrest in human PANC-1 cells assessed as accumulation at S phase at 10 uM incubated for 24 hrs by PI staining based flow cytometry (reference value: 38.94 %); assay type: functional
PANC-1 [32] = experiment: Induction of cell cycle arrest in human PANC-1 cells assessed as accumulation at G0/G1 phase at 0.12 to 2 uM incubated for 24 hrs by PI staining based flow cytometry; assay type: functional; conditions: dose 0.12-2 µM

In the case of `O=C(c1cc(Cc2n[nH]c(=O)c3ccccc23)ccc1F)N1CCN(C(=O)C2CC2)CC1` [OLAPARIB], the Activity [1] is reported as “Non-toxic”, the Activity [2] is reported as “Non-toxic” and the Activity (PANC-1 [3]) is reported as “Active”. For the same compound, the Activity [4] was “Non-toxic”, the Activity (PANC-1 [5]) was 41.49% and the Activity [6] was “Non-toxic”. For the same compound, the Activity (PANC-1 [7]) was 41%, the Activity (PANC-1 [8]) was 3.23% and the Activity (PANC-1 [9]) was 12.41%. The Activity (PANC-1 [10]) was 4.53%, the Activity (PANC-1 [11]) was 43.96% and the Activity [12] was “Non-toxic”. The Activity (PANC-1 [13]) was 21.52%, the Activity (PANC-1 [14]) was 14.19% and the Activity [15] was “Non-toxic”. The Activity (PANC-1 [16]) was 4.05%, the Activity (PANC-1 [17]) was “Active” and the Activity (PANC-1 [18]) was 3.45%. It also gave an Activity (PANC-1 [19]) of 44.32%, an Activity (PANC-1 [20]) of 15.74% and an Activity (PANC-1 [21]) of 4.21%. For the same compound, the Activity (PANC-1 [22]) was 4.21%, the Activity (PANC-1 [23]) was “Active” and the Activity (PANC-1 [24]) was 35.31%. The Activity (PANC-1 [25]) was “Active”, the viability at 5 µM (PANC-1 [26]) was 88.2% and the viability at 10 µM (PANC-1 [27]) was 87.3%. For the same compound, the Activity [28] was “Toxic”, the Activity [29] was “Non-toxic” and the Activity (PANC-1 [30]) was 3.98%. The Activity (PANC-1 [31]) was 44.95%.

With `Cc1sc2c(c1C)C(c1ccc(Cl)cc1)=N[C@@H](CC(=O)OC(C)(C)C)c1nnc(C)n1-2` the Activity (PANC-1 [32]) was “Active”.

With `O=C1CCC(N2C(=O)c3cccc(NC(=O)CNCCCCCCCCCCC(=O)N4CCN(C(=O)c5cc(Cc6n[nH]c(=O)c7ccccc67)ccc5F)CC4)c3C2=O)C(=O)N1` (centres undefined) the Activity [1] was “Non-toxic”, the Activity [2] was “Non-toxic” and the Activity (PANC-1 [3]) was “Active”. The Activity [4] was “Non-toxic”, the Activity (PANC-1 [5]) was 43.26% and the Activity (PANC-1 [32]) was 43.66%. For the same compound, the Activity [6] was “Non-toxic”, the Activity (PANC-1 [7]) was 42.94% and the Activity (PANC-1 [8]) was 3.52%. The Activity (PANC-1 [9]) was 11.34%, the Activity (PANC-1 [10]) was 4.42% and the Activity (PANC-1 [11]) was 42.71%. For the same compound, the Activity [12] was “Non-toxic”, the Activity (PANC-1 [13]) was 21.9% and the Activity (PANC-1 [14]) was 12.98%. The Activity [15] was “Non-toxic”, the Activity (PANC-1 [16]) was 2.74% and the Activity (PANC-1 [17]) was “Active”. The Activity (PANC-1 [18]) was 2.55%, the Activity (PANC-1 [19]) was 43.76% and the Activity (PANC-1 [20]) was 22.93%. For the same compound, the Activity (PANC-1 [21]) was 4.76%, the Activity (PANC-1 [22]) was 3.89% and the Activity (PANC-1 [23]) was “Active”. The Activity (PANC-1 [24]) was 43.14%, the Activity (PANC-1 [25]) was “Active” and the viability at 5 µM (PANC-1 [26]) was 86.7%. The viability at 10 µM (PANC-1 [27]) was 86.3%, the Activity [28] was “Non-toxic” and the Activity [29] was “Non-toxic”. It also gave an Activity (PANC-1 [30]) of 3.71% and an Activity (PANC-1 [31]) of 40.91%.
